The record followed here is patent publication US8735388B2, “Heterocyclic compounds with affinity to muscarinic receptors” (Abbvie B. V. A., priority 2007, dated 2014).

Like-named read-outs stand apart in the source and are kept apart here.

In assay [1] the target is T1, Muscarine M3 (GPCR-A-MA-ACH M3) (Cavia porcellus, UniProt H0W1Z3).
T1 construct: from tissue; host or cells: guinea pig ileum
As to the kind of experiment: Muscarine M3 functional assay, isolated organ (ileum), agonist and antagonist mode. Further details: species or system Guinea Pig. The following applies: for EC50: read-out: Cell funct. Musc. M3 Agonism pEC50 (converted).

Assay [2] concerns the target T2, Muscarine M4 (GPCR-A-MA-ACH M4) (Homo sapiens, UniProt P08173).
T2 construct: expressed in transfected cells; host or cells: CHO cells
T2 sequence (P08173 1-479): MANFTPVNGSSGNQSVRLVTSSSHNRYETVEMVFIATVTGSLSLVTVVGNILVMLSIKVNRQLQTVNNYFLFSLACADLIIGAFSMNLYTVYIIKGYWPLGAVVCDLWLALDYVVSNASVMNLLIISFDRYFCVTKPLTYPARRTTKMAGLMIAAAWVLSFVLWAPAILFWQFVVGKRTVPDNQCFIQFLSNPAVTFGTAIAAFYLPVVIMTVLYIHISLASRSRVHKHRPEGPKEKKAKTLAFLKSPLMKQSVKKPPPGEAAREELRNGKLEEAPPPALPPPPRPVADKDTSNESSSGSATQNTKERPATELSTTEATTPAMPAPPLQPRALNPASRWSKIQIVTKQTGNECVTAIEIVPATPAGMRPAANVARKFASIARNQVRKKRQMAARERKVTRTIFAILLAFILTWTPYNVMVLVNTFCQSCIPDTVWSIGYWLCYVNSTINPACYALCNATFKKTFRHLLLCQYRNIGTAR
Nature of the assay: Muscarine M4 receptor binding, 3H-4DAMP. The following applies: human M4, CHO cells, ligand 0.2 nM, 60 min/22° C.; for Ki: read-out: RB Musc. M4 3H-DAMP pKi (converted). As for the experimental part:
(§1) Compounds were dissolved in DMSO (10 mM) and diluted in assay buffer to test concentration. Prime testing was at 10 μM; for actives (PI, percent inhibition with respect to total and non-specific binding >40%) testing was continued at lower concentrations in 10-fold dilutions: 1 μM, 0.1 μM, etc.
(§2) Following incubation of compound with the receptor preparation (from ‘Tissue’) and the Ligand at the time and temperature indicated, the receptor preparations were rapidly filtered under vacuum through glass fibre filters; the filters were washed extensively with an ice-cold buffer using a harvester. Bound radioactivity was measured by scintillation counting using a liquid scintillation cocktail.
(§3) Results were expressed as percentage of total Ligand binding and that of Non Specific Binding, per concentration of Compound tested (duplicates); from the concentration—displacement curves IC50 values were determined by non-linear regression analysis using Hill equation curve fitting. The inhibition constants (Ki) were calculated from the Cheng-Prushoff equation Ki=IC50/(1+L/Kd), where L is the concentration of radioligand in the assay, and Kd the affinity of the radioligand for the receptor. Results were expressed as pKi's, means±SD of at least 2 separate experiments; i.e. outliers (outside+/−1 std of mean) and discrepancies were excluded.

The target of assay [3] is T2, Muscarine M4 (GPCR-A-MA-ACH M4). As to the kind of experiment: Muscarine M4 receptor binding, 3H-Oxotremorine. As for the experimental part:
as §1, §2, §3

The target is the same in assay [4]. As to the kind of experiment: Muscarine M4 cell-based functional assay (CHO cells, Ca2+ - Aequorin luminescence). As for the experimental part:
Compounds were dissolved in DMSO (10 mM) and diluted in assay buffer to test concentration. Prime testing was at 1 μM; for actives in antagonist mode (PI, percent inhibition with respect to reference agonist and blank>30%) as well as actives in agonist mode (PS, percent stimulation with respect to reference agonist and blank>30%) testing was continued at lower concentrations in 10-fold dilutions: 0.1 μM, 0.01 μM, etc.
Cells were incubated with compound and the response indicated was measured.
The results are expressed as a percent of reference agonist values and blanks in the presence of the test compound, percent stimulation for agonist mode; for the antagonist mode (test compound in the presence of reference agonist) as percent inhibition. The EC50 values (concentration causing a half-maximal stimulation of control values), IC50 values (concentration causing a half-maximal inhibition of control values) were determined by non-linear regression analysis of the concentration-response curves using Hill equation curve fitting.

For assay [5], the target named is T3, Muscarine M1 (GPCR-A-MA-ACH M1) (Homo sapiens, UniProt P11229).
T3 construct: expressed in transfected cells; host or cells: CHO cells
T3 sequence (P11229 1-460): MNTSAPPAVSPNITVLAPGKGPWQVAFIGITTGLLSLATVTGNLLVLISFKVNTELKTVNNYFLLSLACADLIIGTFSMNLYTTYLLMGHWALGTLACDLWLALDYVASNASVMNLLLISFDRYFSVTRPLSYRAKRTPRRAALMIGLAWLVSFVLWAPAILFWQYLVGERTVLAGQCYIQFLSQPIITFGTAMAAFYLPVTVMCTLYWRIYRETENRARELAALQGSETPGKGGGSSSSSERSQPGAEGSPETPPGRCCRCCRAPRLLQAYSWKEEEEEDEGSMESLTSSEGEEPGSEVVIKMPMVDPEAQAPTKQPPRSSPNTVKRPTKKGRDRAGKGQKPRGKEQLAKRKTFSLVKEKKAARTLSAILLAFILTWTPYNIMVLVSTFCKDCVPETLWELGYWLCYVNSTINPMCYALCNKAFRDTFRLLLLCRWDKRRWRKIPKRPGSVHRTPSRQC
As to the kind of experiment: Muscarine M1 receptor binding, 3H-Pirenzepine. The following applies: human M1, CHO cells, ligand 2 nM, 60 min/22° C.; for Ki: read-out: RB Musc. M1 3H-Pirenzepine pKi (converted). The protocol: as §1, §2, §3

Assay [6] deals with T3, Muscarine M1 (GPCR-A-MA-ACH M1). As to the kind of experiment: Muscarine M1 cell-based functional assay (CHO cells, Ca2+ - FLIPR Fluorimetry). The following applies: for EC50: read-out: Cell funct. Musc. M1 Agonism pEC50 (converted).
Assay [7] addresses T4, Muscarine M2 (GPCR-A-MA-ACH M2) (Homo sapiens, UniProt P08172).
T4 construct: expressed in transfected cells; host or cells: CHO cells
T4 sequence (P08172 1-466): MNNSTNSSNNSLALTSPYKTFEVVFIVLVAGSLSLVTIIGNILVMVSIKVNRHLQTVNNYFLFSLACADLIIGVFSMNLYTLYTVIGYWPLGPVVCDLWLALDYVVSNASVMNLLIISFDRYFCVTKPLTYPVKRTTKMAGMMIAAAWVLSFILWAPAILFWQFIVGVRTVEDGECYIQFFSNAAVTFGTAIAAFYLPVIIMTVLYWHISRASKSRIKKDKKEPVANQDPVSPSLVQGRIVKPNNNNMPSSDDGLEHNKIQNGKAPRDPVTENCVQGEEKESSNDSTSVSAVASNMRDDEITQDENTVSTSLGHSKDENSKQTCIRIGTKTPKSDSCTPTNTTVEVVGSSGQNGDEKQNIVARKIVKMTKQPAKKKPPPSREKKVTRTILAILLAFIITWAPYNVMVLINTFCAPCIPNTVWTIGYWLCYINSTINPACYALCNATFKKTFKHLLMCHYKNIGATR
Nature of the assay: Muscarine M2 receptor binding.

Assay [8] deals with T5, Muscarine M2 (GPCR-A-MA-ACH M2) (Cavia porcellus, UniProt H0VRN8).
T5 construct: from tissue; host or cells: guinea pig left atrium (electrically paced)
T5 sequence (H0VRN8 1-466): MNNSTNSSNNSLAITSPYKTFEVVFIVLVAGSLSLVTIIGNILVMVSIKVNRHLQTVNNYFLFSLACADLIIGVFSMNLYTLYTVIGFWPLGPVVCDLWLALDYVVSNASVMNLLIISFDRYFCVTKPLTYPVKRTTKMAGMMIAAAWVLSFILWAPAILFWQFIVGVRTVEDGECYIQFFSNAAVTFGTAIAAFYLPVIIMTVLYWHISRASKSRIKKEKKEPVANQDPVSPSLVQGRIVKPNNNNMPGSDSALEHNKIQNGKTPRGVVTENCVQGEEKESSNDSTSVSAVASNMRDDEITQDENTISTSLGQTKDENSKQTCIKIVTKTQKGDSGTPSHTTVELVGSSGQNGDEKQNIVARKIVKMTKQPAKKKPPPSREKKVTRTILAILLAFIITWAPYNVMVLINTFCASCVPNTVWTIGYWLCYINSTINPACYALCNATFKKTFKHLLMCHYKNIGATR
Nature of the assay: Muscarine M2 functional assay, isolated organ (left atrium, electrically paced), agonist and antagonist mode. The following applies: for EC50: read-out: Cell funct. Musc. M2 Agonism pEC50 (converted). Further details: species or system Guinea Pig.

Assay [9] concerns the target T6, Muscarine M3 (GPCR-A-MA-ACH M3) (Homo sapiens, UniProt P20309).
T6 construct: expressed in transfected cells; host or cells: CHO cells
As to the kind of experiment: Muscarine M3 receptor binding.

Setting [10] is: human M4, CHO cells, receptor binding, ligand 6 nM, 30 min/25° C., read-out: RB Musc. M4 3H-Oxotremorine pKi (converted).
Setting [11] is: human M4, CHO cells, agonist mode, reference agonist oxotremorine, read-out: Cell funct. Musc. M4 Agonism pEC50 (converted).
The mark [12] stands for this setting: human M1, CHO cells, agonist mode, reference agonist acetylcholine.
Setting [13] is: human M2, CHO cells, receptor binding.
Where [14] appears, read: read-out: Cell funct. Musc. M2 Antagonism pA2 (converted).
The mark [15] stands for this setting: human M3, CHO cells, receptor binding.

T1 sequence (H0W1Z3 1-590): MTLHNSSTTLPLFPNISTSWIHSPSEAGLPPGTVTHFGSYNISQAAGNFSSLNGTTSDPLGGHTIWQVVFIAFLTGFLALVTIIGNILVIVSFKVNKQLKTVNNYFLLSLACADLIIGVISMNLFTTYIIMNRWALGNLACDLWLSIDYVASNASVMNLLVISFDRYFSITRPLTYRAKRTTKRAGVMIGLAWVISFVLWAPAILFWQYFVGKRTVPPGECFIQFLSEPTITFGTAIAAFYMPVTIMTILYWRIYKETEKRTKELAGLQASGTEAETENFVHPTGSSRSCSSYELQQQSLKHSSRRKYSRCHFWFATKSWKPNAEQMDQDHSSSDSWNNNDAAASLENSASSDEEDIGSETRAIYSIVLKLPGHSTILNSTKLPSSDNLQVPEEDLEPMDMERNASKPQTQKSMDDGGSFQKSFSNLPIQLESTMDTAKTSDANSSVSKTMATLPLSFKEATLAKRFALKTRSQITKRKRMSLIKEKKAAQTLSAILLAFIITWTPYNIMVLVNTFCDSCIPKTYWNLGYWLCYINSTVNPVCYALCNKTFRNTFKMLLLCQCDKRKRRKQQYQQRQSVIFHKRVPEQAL
T6 sequence (P20309 whole entry): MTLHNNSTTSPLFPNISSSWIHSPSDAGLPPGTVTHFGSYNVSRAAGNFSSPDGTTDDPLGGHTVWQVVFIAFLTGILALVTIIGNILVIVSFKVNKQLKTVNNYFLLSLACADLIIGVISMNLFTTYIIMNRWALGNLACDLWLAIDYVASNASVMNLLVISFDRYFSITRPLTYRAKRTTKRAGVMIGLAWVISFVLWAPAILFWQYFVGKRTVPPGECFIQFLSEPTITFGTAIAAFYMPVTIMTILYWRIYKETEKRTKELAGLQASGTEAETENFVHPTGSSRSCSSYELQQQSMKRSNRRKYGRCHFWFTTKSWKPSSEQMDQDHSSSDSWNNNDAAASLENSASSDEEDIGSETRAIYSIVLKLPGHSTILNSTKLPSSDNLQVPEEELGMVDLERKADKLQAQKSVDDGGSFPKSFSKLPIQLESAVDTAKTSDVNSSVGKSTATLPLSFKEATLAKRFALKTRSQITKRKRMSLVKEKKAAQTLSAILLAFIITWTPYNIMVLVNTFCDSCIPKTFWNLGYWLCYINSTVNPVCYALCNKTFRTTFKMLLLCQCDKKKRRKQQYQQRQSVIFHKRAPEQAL

`CN1CCN(CC(=O)N2c3ccccc3C(=O)Nc3cccnc32)CC1` [Pirenzepine, reference compound] showed a Kb in [1] of 1.26 nM.
On to `CCCSc1c[nH]nc1C1CN2CCC1CC2` (stereo not drawn) [Compound 49E, 3-(4-Propylsulfanyl-1H-pyrazol-3-yl)-1-azabicyclo[2.2.2]octane], for which the Ki in [2] is 39.8 nM; in assay [3] it was 79.4 nM; in assay [5], 316 nM; in assay [7], 501 nM; in assay [9], 126 nM. Besides, the EC50 is 79.4 nM in [4], 10 nM in assay [6], 794 nM in assay [8] and > 1000 nM in assay [1]. The Kb in assay [8] and in assay [1] was > 1000 nM in each case.
As to `CCCCCCSc1nc[nH]c1C1=CCCN(C)C1` [Compound 76B, 3-(5-Hexylsulfanyl-3H-imidazol-4-yl)-1,2,5,6-tetrahydro-1-methylpyridine], the Ki in assay [2] was 501 nM; in assay [3] (setting [10]) it was 1000 nM; in [5] it was 3980 nM; in [7] (setting [13]), 6310 nM; in assay [9] (setting [15]) it was 2510 nM. For the same molecule, the EC50 in [4] (setting [11]) is 1000 nM; in [6] (setting [12]), 79.4 nM; in assay [8] it was > 1000 nM; in assay [1], > 1000 nM. Moreover, the Kb in [8] (setting [14]) and in assay [1] was > 1000 nM in each case.
For the molecule `COc1ccccc1CNCCCCCCNCCCCCCCCNCCCCCCNCc1ccccc1OC` [Methoctramine, reference compound], the Kb in [8] is 12.6 nM.
Regarding `CCCCOc1c[nH]nc1C1CN2CCC1CC2` (stereo not drawn) [Compound 52A, 3-(4-Butoxy-1H-pyrazol-3-yl)-1-azabicyclo[2.2.2]octane], the Ki in assay [2] was 251 nM; in assay [3] it was 126 nM; in assay [5] it was 794 nM; in [7] it was 3980 nM; in assay [9], 794 nM. The EC50 in assay [6] is 20 nM; in assay [8], > 1000 nM; in assay [1], > 1000 nM. Besides, the Kb in assay [8] and in [1] was > 1000 nM in each case.
In the case of `c1ccc(CCSc2c[nH]nc2C2CN3CCC2CC3)cc1` (stereo not drawn) [Compound 49G, 3-(4-Phenethylsulfanyl-1H-pyrazol-3-yl)-1-azabicyclo[2.2.2]octane], the “RB Musc. M4 3H-DAMP pKi” value in assay [2] is reported as 7.0. Further, the “RB Musc. M4 3H-Oxotremorine pKi” value in assay [3] came out at 7.6. Besides, in assay [4], the “Cell funct. Musc. M4 Agonism pEC50” value was found to be 8.0. In assay [5], the “RB Musc. M1 3H-Pirenzepine pKi” value turned out to be 6.2. The “Cell funct. Musc. M1 Agonism pEC50” value in assay [6] is recorded as 7.3. Moreover, the “RB Musc M2 methoctramine” value in assay [7] was 6.1. For the same molecule, in assay [8], the “Cell funct. Musc. M2 Agonism pEC50” value was <6 and the “Cell funct. Musc. M2 Antagonism pA2” value is on record as <6. Moreover, the “RB Musc M3 4-DAMP” value in [9] is recorded as 6.5. Moreover, in assay [1], the “Cell funct. Musc. M3 Agonism pEC50” value is <6 and the “Cell funct. Musc. M3 Antagonism pA2” value is <6.
For the molecule `CC(C)CCSc1c[nH]nc1C1=CCCN(C)C1` [Compound 22S, 3-[4-(3-methyl-butylsulfanyl)-1H-pyrazol-3-yl]-1,2,5,6-tetrahydro-1-methylpyridine], the Ki in assay [2] is 50.1 nM; in assay [3] (setting [10]), 158 nM; in assay [5], 126 nM; in [7] (setting [13]) it was 2000 nM; in assay [9] (setting [15]), 50.1 nM. Besides, the EC50 is > 10000 nM in assay [4] (setting [11]), 398 nM in assay [6] (setting [12]), > 1000 nM in assay [8] and > 1000 nM in assay [1]. Also, the Kb is > 1000 nM in assay [8] (setting [14]) and 100 nM in assay [1].
With `CCCCCOc1c[nH]nc1C1CN2CCC1CC2` (stereo not drawn) [Compound 52C, 3-(4-Pentyloxy-1H-pyrazol-3-yl)-1-azabicyclo[2.2.2]octane], the Ki in assay [2] was 251 nM; in [3], 63.1 nM; in [5] it was 1000 nM; in [7] it was 2510 nM; in assay [9] it was 631 nM. For the same molecule, the EC50 in [6] is 12.6 nM; in assay [8] it was > 1000 nM; in assay [1], > 1000 nM. In addition, the Kb in assay [8] and in [1] was > 1000 nM throughout.
